Measured values published in patent US11840686B2, “Modulation of prekallikrein (PKK) expression” (Ionis Pharmaceuticals, Inc., priority 2013, dated 2023).
Strand notation (5' to 3'): a small letter for the sugar, then the base; units joined by * are phosphorothioate-linked, units joined directly phosphodiester-linked; [ ] holds rarer units or linkages, { } end groups; capitals alone tell only the bases. e = 2'-O-(2-methoxyethyl) (MOE); [5mC] = 5-methylcytosine; d = 2'-deoxy (DNA)

Columns and labels:
[1] = tested on: human PKK mRNA; assay: Antisense inhibition of human PKK mRNA in HepaRG cells, 5,000 nM (Example 2); type: cell-based
How it was run: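 Chimeric MOE gapmers with full phosphorothioate backbones were tested once at 5,000 nM in electroporated HepaRG cells. After about 24 hours, quantitative PCR measured PKK mRNA relative to untreated control cells.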

[2] = tested on: human PKK mRNA; assay: Dose-dependent antisense inhibition of human PKK in HepaRG cells, 0.19-5.00 uM (Example 5); type: cell-based; details: for percent inhibition of PKK mRNA, 0.19 μM: 0.19 μM antisense oligonucleotide; for percent inhibition of PKK mRNA, 0.56 μM: 0.56 μM antisense oligonucleotide; for percent inhibition of PKK mRNA, 1.67 μM: 1.67 μM antisense oligonucleotide; for percent inhibition of PKK mRNA, 5.00 μM: 5.00 μM antisense oligonucleotide
Procedure: Cells were plated at a density of 20,000 cells per well and transfected using electroporation with 0.19 μM, 0.56 μM, 1.67 μM, and 5.00 μM concentrations of antisense oligonucleotide. After a treatment period of approximately 16 hours, RNA was isolated from the cells and PKK mRNA levels were measured by quantitative real-time PCR. Human PKK primer probe set RTS3454 was used to measure mRNA levels. PKK mRNA levels were adjusted according to total RNA content, as measured by RIBOGREEN®. The antisense oligonucleotides were tested in a series of experiments that had similar culture conditions.
The half maximal inhibitory concentration (IC50) of each oligonucleotide is also presented.

[3] = HepaRG cells, electroporation, 5,000 nM antisense oligonucleotide, approx. 24 hours, primer probe set RTS3454, relative to untreated control cells, Table 12
[4] = HepaRG cells, electroporation, approximately 16 hours, Table 38
[5] = 4 point dose response, HepaRG cells, Table 38
[6] = Table 13, human PKK mRNA in HepaRG cells, 5-10-5 gapmers
[7] = HepaRG cells, electroporation, approximately 16 hours, Table 37
[8] = HepaRG cells, electroporation, approximately 16 hours, Table 36
[9] = 4 point dose response, HepaRG cells, Table 36
[10] = Table 34, HepaRG, electroporation, ~16 h

Substance: 546403 (e[5mC]*e[5mC]*eA*eT*eG*dA*dA*d[5mC]*dA*dT*d[5mC]*d[5mC]*dT*dA*dT*e[5mC]*e[5mC]*eG*eT*eG; antisense) [compound 546403]
- % inhibition [1, 3]: 83%
- percent inhibition of PKK at 0.19 μM [2, 4]: 0%
- percent inhibition of PKK at 0.56 μM [2, 4]: 20%
- percent inhibition of PKK at 1.67 μM [2, 4]: 37%
- percent inhibition of PKK at 5.00 μM [2, 4]: 41%
- IC50 [2, 5]: > 5000 nM

Substance: 546410 (eG*eA*e[5mC]*eT*eT*dT*dG*dG*dG*dT*dT*dT*d[5mC]*dT*dG*e[5mC]*e[5mC]*eA*eA*e[5mC]; antisense) [compound 546410]
- % inhibition [1, 3]: 83%
- percent inhibition of PKK at 0.19 μM [2, 4]: 13%
- percent inhibition of PKK at 0.56 μM [2, 4]: 43%
- percent inhibition of PKK at 1.67 μM [2, 4]: 52%
- percent inhibition of PKK at 5.00 μM [2, 4]: 75%
- IC50 [2, 5]: 1200 nM

Substance: 546412 (eG*eG*e[5mC]*eT*eT*d[5mC]*dA*dA*dT*dA*dT*dT*dG*dA*d[5mC]*eT*eT*eT*eG*eG; antisense) [compound 546412]
- % inhibition [1, 3]: 84%
- percent inhibition of PKK at 0.19 μM [2, 4]: 0%
- percent inhibition of PKK at 0.56 μM [2, 4]: 1%
- percent inhibition of PKK at 1.67 μM [2, 4]: 61%
- percent inhibition of PKK at 5.00 μM [2, 4]: 62%
- IC50 [2, 5]: 2300 nM

Substance: 546429 (eG*e[5mC]*e[5mC]*e[5mC]*eA*d[5mC]*d[5mC]*dA*dA*d[5mC]*dA*dA*dT*d[5mC]*dT*e[5mC]*eT*eG*eG*eT; antisense) [compound 546429]
- % inhibition [1, 3]: 84%
- percent inhibition of PKK at 0.19 μM [2, 4]: 6%
- percent inhibition of PKK at 0.56 μM [2, 4]: 10%
- percent inhibition of PKK at 1.67 μM [2, 4]: 44%
- percent inhibition of PKK at 5.00 μM [2, 4]: 69%
- IC50 [2, 5]: 2300 nM

Substance: 546739 (eA*eT*eT*e[5mC]*eG*dG*dT*dG*dT*d[5mC]*dT*dT*dT*dA*d[5mC]*eT*eG*eG*e[5mC]*eT; antisense) [compound 546739]
- % inhibition [1, 6]: 89%
- percent inhibition of PKK at 0.19 μM [2, 7]: 35%
- percent inhibition of PKK at 0.56 μM [2, 7]: 55%
- percent inhibition of PKK at 1.67 μM [2, 7]: 57%
- percent inhibition of PKK at 5.00 μM [2, 7]: 79%
- IC50 ([2]; 4 point dose response, HepaRG cells, Table 37): 600 nM
- percent inhibition of PKK mRNA, 0.19 μM ([2]; HepaRG cells): 4%
- percent inhibition of PKK mRNA, 0.56 μM ([2]; HepaRG cells): 62%
- percent inhibition of PKK mRNA, 1.67 μM ([2]; HepaRG cells): 84%
- percent inhibition of PKK mRNA, 5.00 μM ([2]; HepaRG cells): 86%
- IC50 ([2]; HepaRG cells, 0.19-5.00 μM): 600 nM

Substance: 546753 (e[5mC]*eT*eG*eG*e[5mC]*dT*d[5mC]*dA*d[5mC]*dT*dA*dT*dA*dG*dG*e[5mC]*e[5mC]*e[5mC]*e[5mC]*eA; antisense) [compound 546753]
- % inhibition [1, 6]: 91%
- percent inhibition of PKK at 0.19 μM [2, 8]: 28%
- percent inhibition of PKK at 0.56 μM [2, 8]: 47%
- percent inhibition of PKK at 1.67 μM [2, 8]: 83%
- percent inhibition of PKK at 5.00 μM [2, 8]: 96%
- IC50 [2, 9]: 500 nM
- percent inhibition of PKK mRNA, 0.19 μM ([2]; HepaRG cells): 17%
- percent inhibition of PKK mRNA, 0.56 μM ([2]; HepaRG cells): 31%
- percent inhibition of PKK mRNA, 1.67 μM ([2]; HepaRG cells): 70%
- percent inhibition of PKK mRNA, 5.00 μM ([2]; HepaRG cells): 91%
- IC50 ([2]; HepaRG cells, 0.19-5.00 μM): 900 nM

Substance: 546825 (eG*eT*eA*eT*e[5mC]*dA*d[5mC]*dT*dG*dT*dA*d[5mC]*dT*dA*dG*eT*eT*eT*e[5mC]*e[5mC]; antisense) [compound 546825]
- % inhibition [1, 6]: 96%
- percent inhibition of PKK at 5.00 μM ([2]; HepaRG cells, electroporation, approximately 16 hours, Table 41): 99%
- percent inhibition of PKK at 0.19 0μM ([2]; 0.19 0μM, HepaRG cells, electroporation, approximately 16 hours, Table 41): 38%
- percent inhibition of PKK at 0.56 0μM ([2]; 0.56 0μM, HepaRG cells, electroporation, approximately 16 hours, Table 41): 82%
- IC50 ([2]; 4 point dose response, HepaRG cells, Table 41): 200 nM
- percent inhibition of PKK at 0.19 μM [2, 10]: 46%
- percent inhibition of PKK at 0.56 μM [2, 10]: 73%
- percent inhibition of PKK at 1.67 μM [2, 10]: 86%
- percent inhibition of PKK at 5.00 μM [2, 10]: 88%
- IC50 ([2]; Table 34, PKK mRNA, HepaRG, electroporation, ~16 h): 200 nM

Substance: 546826 (eA*eG*eT*eA*eT*d[5mC]*dA*d[5mC]*dT*dG*dT*dA*d[5mC]*dT*dA*eG*eT*eT*eT*e[5mC]; antisense) [compound 546826]
- % inhibition [1, 6]: 90%
- percent inhibition of PKK at 0.19 μM [2, 8]: 17%
- percent inhibition of PKK at 0.56 μM [2, 8]: 40%
- percent inhibition of PKK at 1.67 μM [2, 8]: 87%
- percent inhibition of PKK at 5.00 μM [2, 8]: 97%
- IC50 [2, 9]: 700 nM
